According to paper PMC9161616, “A first-in-human phase 1/2 study of FGF401 and combination of FGF401 with spartalizumab in patients with hepatocellular carcinoma or biomarker-selected solid tumors” (Journal of Experimental & Clinical Cancer Research : CR, 2022):

What was measured:
[1] = system: patients with HCC or other solid malignancies
Procedure: FGF401 was administered per oral under fasted condition or with low-fat meal on a continuous once daily (qd) regimen for both FGF401 single agent and in combination with spartalizumab. A 300-mg intravenous infusion of spartalizumab was administered once every three weeks (q3w) and 1 treatment cycle was defined as 21 days. The study treatment was administered until the patient experienced unacceptable toxicity, progressive disease and/or the treatment was discontinued at investigator’s discretion or patient’s withdrawal of consent. Figure 1 summarizes the study design and visit flow.
The secondary endpoints characterizing safety, efficacy, pharmacokinetics (PK), immunogenicity, and food effect properties of the FGF401 and the combination were based on the assessments on their respectively defined population sets. Adverse events (AEs) that emerged during treatment were monitored throughout the study until 30 days after discontinuation of the single agent and 150 days after discontinuation of the combination. Adverse events were coded using the Medical Dictionary for Regulatory Activities (MedDRA) and assessed as per Common Terminology Criteria for Adverse Events (CTCAE) version 4.03. The clinical laboratory assessments were collected no later than 30 days after the last date of study treatment administration. The grades were classified as low/normal/high when not defined by CTCAE v4.03. Other assessments of vital signs, physical examinations, and electrocardiogram (ECG) parameters were also performed.
Safety analyses conducted in the safety set constituted summaries for AEs occurring during on-treatment period with number and percentage of patients having at least 1 AE. Summaries presented overview of AEs and deaths (number and percentage of patients who died with any AE, SAE, dose reductions/interruptions, AE leading to discontinuation), SAEs, AEs related to study treatment, AEs leading to treatment discontinuation, dose interruption/adjustment or fatal outcome. Additionally, in combination part, summaries were produced using all treatment-related AEs starting or worsening during the on-treatment or extended safety follow-up periods (within 150 days after the date of last administration of study treatment).

[2] = Plasma pharmacokinetics of FGF401 (noncompartmental) and food effect; assay type: in vivo, human
Procedure: Pharmacokinetic endpoints included plasma concentrations and PK parameters of FGF401 and spartalizumab. Pharmacokinetic parameters were determined with noncompartmental method(s) using Phoenix WinNonlin version 6.4 or above (Pharsight Corporation, Mountain View, Califormia, USA). Immunogenicity of spartalizumab was assessed through presence and/or concentration of anti-drug (spartalizumab) antibodies (ADA). Food effect on FGF401 exposure was evaluated through plasma concentration of FGF401 and relevant PK parameters when dosing under fed condition. Safety of the food effect was assessed through incidence and severity of AEs and serious AEs (SAEs), including changes in laboratory values, vital signs, and ECGs when dosing under fed condition. The PK analyses and summary statistics were based on pharmacokinetic analysis set. Individual as well as mean concentration-time profiles were constructed using concentration data for spartalizumab and FGF401. Descriptive statistics for PK parameters included mean, standard deviation, coefficient of variation (CV%) mean, geometric mean, median, minimum, and maximum, with only the latter 3 for time to reach maximum concentration (Tmax) and additional 90% CI for accumulation ratio (Racc). Zero concentrations were not included in the geometric mean calculations. Missing concentrations or PK parameter values were not imputed.

[3] = single agent, All patients N = 160

Which “patients who died on treatment because of existing cancer” value ([1]; 17 patients of 160) does the source give for `COCCNc1cc(NC(=O)N2CCCc3cc(CN4CCN(C)CC4=O)c(C=O)nc32)ncc1C#N` [FGF401, roblitinib] here?
The value was 10.6%.

And the “discontinued treatment because of progressive disease” value ([1]; 130 of 160 patients)?
Its value is 81%.

And the “patients who died on treatment” value ([1]; Twenty patients of 160)?
Its value is 12.5%.

And the “patients who died on treatment because of other reasons” value ([1]; gastric bleeding, multiple organ dysfunction syndrome, unknown cause)?
Its value is 3 patients.

What about the “AEs leading to FGF401 discontinuation, All grades” value ([1]; human, in vivo) of the same compound?
Its value is 18 (11.3) n (%).

What about the “AEs leading to FGF401 discontinuation, Grade 3 or 4” value ([1]; human, in vivo) of the same compound?
Its value is 13 (8.1) n (%).

And the “AEs leading to FGF401 discontinuation, Treatment related, All grades” value ([1]; human, in vivo)?
The value was 12 (7.5) n (%).

What about the “AEs leading to FGF401 discontinuation, Treatment related, Grade 3 or 4” value ([1]; human, in vivo) of the same compound?
Its value is 8 (5.0) n (%).

What about the “AEs leading to FGF401 dose adjustment/interruption, All grades” value ([1]; human, in vivo) of the same compound?
The value was 80 (50.0) n (%).

What about the “AEs leading to FGF401 dose adjustment/interruption, Grade 3 or 4” value ([1]; human, in vivo) of the same compound?
The value was 58 (36.3) n (%).

And the “AEs leading to FGF401 dose adjustment/interruption, Treatment related, All grades” value ([1]; human, in vivo)?
Its value is 47 (29.4) n (%).

What about the “AEs leading to FGF401 dose adjustment/interruption, Treatment related, Grade 3 or 4” value ([1]; human, in vivo) of the same compound?
The value was 34 (21.3) n (%).

And the “ALT increased leading to FGF401 discontinuation” value ([1]; human, in vivo)?
Its value is 3.8%.

What about the “AST increased leading to FGF401 discontinuation” value ([1]; human, in vivo) of the same compound?
Its value is 1.9%.

What about the “Constipation, Grade 3/4” value ([1]; human, in vivo) of the same compound?
Its value is 0 n (%).

What about the “Decreased appetite, Grade 3/4” value ([1]; human, in vivo) of the same compound?
The value was 0 n (%).

What about the “Edema peripheral, Grade 3/4” value ([1]; human, in vivo) of the same compound?
The value was 0 n (%).

What about the “Grade 3 or 4 AEs suspected to be related to study treatment” value ([1]; human, in vivo) of the same compound?
Its value is 31.9%.

And the “Grade 3 or 4 related ALT elevated” value ([1]; human, in vivo)?
The value was 15.0%.

And the “Grade 3 or 4 related AST increased” value ([1]; human, in vivo)?
Its value is 18.8%.

What about the “Grade 3 or 4 related diarrhea” value ([1]; human, in vivo) of the same compound?
The value was 5.0%.

And the “Nausea, Grade 3/4” value ([1]; human, in vivo)?
The value was 0 n (%).

And the “Primary reason for end of treatment: Adverse event” value ([1]; human, in vivo)?
The value was 18 (11.3) n (%).

What about the “Pyrexia, Grade 3/4” value ([1]; human, in vivo) of the same compound?
The value was 0 n (%).

And the “SAEs, Treatment related, Grade 3 or 4” value ([1]; human, in vivo)?
The value was 7 (4.4) n (%).

And the “blood bilirubin increased leading to FGF401 discontinuation” value ([1]; human, in vivo)?
Its value is 2.5%.

What about the “dose interruption due to AEs” value ([1]; human, in vivo) of the same compound?
The value was 52.5%.

What about the “dose reduction due to AEs” value ([1]; human, in vivo) of the same compound?
Its value is 18.1%.

What about the “patients with a grade 3 or 4 AE” value ([1]; human, in vivo) of the same compound?
The value was 72.5%.

And the patients with diarrhea ([1]; human, in vivo)?
Its patients with diarrhea is 73.8%.

And the “patients with dose interruption” value ([1]; human, in vivo)?
Its value is 60.6%.

And the “patients with dose reduction” value ([1]; human, in vivo)?
The value was 21.3%.

And the “patients with increased ALT” value ([1]; human, in vivo)?
The value was 43.8%.

And the “patients with increased AST” value ([1]; human, in vivo)?
The value was 47.5%.

And the “Primary reason for end of treatment: Death” value ([1]; single agent N=160)?
Its value is 2 (1.3) n (%).

And the “Primary reason for end of treatment: Progressive disease” value ([1]; single agent N=160)?
Its value is 130 (81.3) n (%).

And the “AEs, All grades” value [1, 3]?
Its value is 160 (100) n (%).

What about the “AEs, Grade 3 or 4” value [1, 3] of the same compound?
Its value is 116 (72.5) n (%).

What about the “AEs, Treatment related, All grades” value [1, 3] of the same compound?
Its value is 148 (92.5) n (%).

And the “AEs, Treatment related, Grade 3 or 4” value [1, 3]?
Its value is 51 (31.9) n (%).

What about the “Fatal SAEs, All grades” value [1, 3] of the same compound?
Its value is 3 (1.9) n (%).

What about the “Fatal SAEs, Grade 3 or 4” value [1, 3] of the same compound?
The value was 3 (1.9) n (%).

And the “Fatal SAEs, Treatment related, All grades” value [1, 3]?
Its value is 0 n (%).

What about the “Fatal SAEs, Treatment related, Grade 3 or 4” value [1, 3] of the same compound?
Its value is 0 n (%).

What about the “SAEs, All grades” value [1, 3] of the same compound?
The value was 70 (43.8) n (%).

What about the “SAEs, Grade 3 or 4” value [1, 3] of the same compound?
Its value is 55 (34.4) n (%).

And the “SAEs, Treatment related, All grades” value [1, 3]?
Its value is 8 (5.0) n (%).

And the “dose proportionality of exposures (AUC and Cmax)” value ([2]; 50 to 150 mg, fasted and fasted-fed combined)?
The value was “increased slightly under dose proportion”.

What about the Racc ([2]; C1D8 and C2D1 versus C1D1) of the same compound?
Its Racc is “around 1”.

What about the Racc ([2]; Cycle 1 day 8, 50 mg Fasted, n=6, geometric mean (CV%)) of the same compound?
The Racc was 0.929 (12.1).

What about the Racc ([2]; Cycle 1 day 8, 80 mg Fasted, n=5, geometric mean (CV%)) of the same compound?
Its Racc is 0.97 (14.3).
